Values of other authors in US20080161413A1, “Agent for increasing adiponectin in blood” (YAMAHA HATSUDOKI KABUSHIKI KAISHA, priority 2006, published 2008).

System: adiponectin
Conditions: obese/diabetic mice

COc1cc(C(C)=O)ccc1O [apocynin]
production of adiponectin: increases
